# Laboratory results from patent US20140038181A1, “CHEMICALLY SUBSTITUTED THERMOSENSITIVE PROBES AND COFACTORS FOR HOT START LIGATION” (TRILINK BIOTECHNOLOGIES, priority 2011, published 2014).
# Experiment: Thermal conversion of 2′,3′-substituted ATP to unsubstituted ATP in ligase buffer at 95° C. (HPLC)
# Format: physicochemical
# Conditions: for Concentration of unsubstituted ATP: 1 mM 2′,3′-substituted ATP
# Method: The reactions were monitored by analysis of the aliquot of incubated mixture by reverse-phase and anion-exchange HPLC.
smiles,measurement,setting,value
"CC(C)(C)OCCO[C@@H]1[C@H](OCCOC(C)(C)C)[C@@H](COP(=O)(O)OP(=O)(O)OP(=O)(O)O)O[C@H]1n1cnc2c(N)ncnc21 [2′,3′-TBE-substituted ATP, 2′,3′-O-bis-[2-(tert-butoxy)]ethyl-adenosine-5′-triphosphate]",Concentration of unsubstituted ATP,"ligase buffer pH 7.5, 5 min",569 µM
same,Concentration of unsubstituted ATP,"ligase buffer pH 7.5, 10 min",857 µM
same,Concentration of unsubstituted ATP,"ligase buffer pH 7.5, 20 min",970 µM
same,cofactor molecules converted to the unmodified ATP,"2 min, ligation buffer",about 20%
same,conversion to unmodified ATP,"20 min, ligation buffer",more than 85%
